Laboratory results taken from US9108920B2, “Diazeniumdiolate heterocyclic derivatives” (Merck Sharp & Dohme Corp., priority 2010, dated 2015).

Test system: Male beagle dogs
Experiment: canine telemetry protocol, blood pressure reduction efficacy
Format: in vivo
Details: change from baseline, 3 mg/kg oral gavage; for ΔPP (mm Hg) 1-6 h / ΔPP (mm Hg) 6-12 h / ΔPP (mm Hg) 12-18 h: pulse pressure; for ΔSBP (mm Hg) 1-6 h / ΔSBP (mm Hg) 6-12 h / ΔSBP (mm Hg) 12-18 h: systolic blood pressure
Experimental: Compounds of the invention were evaluated for blood pressure reduction efficacy using the following canine telemetry protocol described below.
Male beagle dogs (approximately 1-3 years old) with a body weight of between 10 and 16 kg were surgically implanted with DSI radiotelemetry devices (model: TL11M2-D70-PCT). Briefly, under an inhalant anesthesia, isoflurane/oxygen mixture (1-3.5%/to effect), the body of the telemetry device was positioned and secured intra-abdominally. Subsequently, the arterial catheter of the telemetry device was passed subcutaneously to the inguinal area and introduced into the femoral artery and advanced to the level of the descending aorta. The catheter was secured with 2-0 silk ligatures. The muscle and underlying fascia was closed over the catheter using absorbable suture and the skin was closed using non-absorbable suture. The animals were allowed a minimum recovery period of 2 weeks between surgery and the evaluation of test compounds.
Compound evaluation consisted of a 3 day paradigm at a 3 mg/kg dose. On the first day, no compounds were administered during a 24 hour period of baseline data collection. Blood pressure and heart rate data were collected continuously for one minute periods at 10 minute intervals. On the days of compound administration half the animals received test article with the other half receiving the vehicle used for compound formulation. All test materials were administered by oral gavage in a volume of 1 mL/kg. Data are expressed either as raw values (mm Hg or beats per minute) or as the change from baseline (average value for about 12 hours in low activity period prior to dosing).

CCN(/[N+]([O-])=N/OC1CCN(C(=O)OC(C)(C)C)CC1)C(C)(C)C [Example 6, O^2-[1-(tert-butoxycarbonyl)piperidin-4-yl]1-(N-tert-butyl-N-ethylamino)diazen-1-ium-1,2-diolate]
ΔPP (mm Hg) 1-6 h: −19 mm Hg | ΔPP (mm Hg) 6-12 h: −17 mm Hg | ΔPP (mm Hg) 12-18 h: −15 mm Hg | ΔSBP (mm Hg) 1-6 h: −25 mm Hg | ΔSBP (mm Hg) 6-12 h: −16 mm Hg | ΔSBP (mm Hg) 12-18 h: −9 mm Hg

CN(/[N+]([O-])=N/O[C@@H]1CCN(C(=O)OC(C)(C)C)C1)C(C)(C)C [Example 1, O^2-[(3R)-1-(tert-butoxycarbonyl)pyrrolidin-3-yl]1-(N-tert-butyl-N-methylamino)diazen-1-ium-1,2-diolate]
ΔPP (mm Hg) 1-6 h: −16 mm Hg | ΔPP (mm Hg) 6-12 h: −17 mm Hg | ΔPP (mm Hg) 12-18 h: −15 mm Hg | ΔSBP (mm Hg) 1-6 h: −16 mm Hg | ΔSBP (mm Hg) 6-12 h: −15 mm Hg | ΔSBP (mm Hg) 12-18 h: −11 mm Hg

O^2-[(3R)-1-(3-methoxyphenyl)-2-oxopyrrolidin-3-yl]1-(N-tert-butyl-N-methylamino)diazen-1-ium-1,2-diolate [Example 64]
ΔPP (mm Hg) 1-6 h: −12 mm Hg | ΔPP (mm Hg) 6-12 h: −15 mm Hg | ΔPP (mm Hg) 12-18 h: −13 mm Hg | ΔSBP (mm Hg) 1-6 h: −13 mm Hg | ΔSBP (mm Hg) 6-12 h: −12 mm Hg | ΔSBP (mm Hg) 12-18 h: −11 mm Hg

CCN(/[N+]([O-])=N/O[C@@H]1CCN(C(=O)NC(C)(C)C)C1)C(C)(C)C [Example 59, O^2-[(3R)-1-(tert-butylcarbamoyl)pyrrolidin-3-yl]1-(N-tert-butyl-N-ethylamino)diazen-1-ium-1,2-diolate]
ΔPP (mm Hg) 1-6 h: −17 mm Hg | ΔPP (mm Hg) 6-12 h: −16 mm Hg | ΔPP (mm Hg) 12-18 h: −15 mm Hg | ΔSBP (mm Hg) 1-6 h: −19 mm Hg | ΔSBP (mm Hg) 6-12 h: −18 mm Hg | ΔSBP (mm Hg) 12-18 h: −17 mm Hg

CCN(/[N+]([O-])=N/O[C@@H]1CCN(CC(F)(F)F)C1)C(C)(C)C [Example 32, O^2-[(3R)-1-(2,2,2-trifluoroethyl)pyrrolidin-3-yl]-1-(N-tert-butyl-N-ethylamino)diazen-1-ium-1,2-diolate]
ΔPP (mm Hg) 1-6 h: −23 mm Hg | ΔPP (mm Hg) 6-12 h: −15 mm Hg | ΔPP (mm Hg) 12-18 h: −10 mm Hg | ΔSBP (mm Hg) 1-6 h: −32 mm Hg | ΔSBP (mm Hg) 6-12 h: −16 mm Hg | ΔSBP (mm Hg) 12-18 h: −5 mm Hg

CN(/[N+]([O-])=N/O[C@@H]1CCN(Cc2ccccc2)C1)C(C)(C)C [Example 28, O^2-[(3R)-1-benzylpyrrolidin-3-yl]1-(N-tert-butyl-N-methylamino)diazen-1-ium-1,2-diolate]
ΔPP (mm Hg) 1-6 h: −12 mm Hg | ΔPP (mm Hg) 6-12 h: −10 mm Hg | ΔPP (mm Hg) 12-18 h: −5 mm Hg | ΔSBP (mm Hg) 1-6 h: −21 mm Hg | ΔSBP (mm Hg) 6-12 h: −14 mm Hg | ΔSBP (mm Hg) 12-18 h: −7 mm Hg

CCN(/[N+]([O-])=N/OC1CCN(c2ccc(C#N)cn2)CC1)C(C)(C)C [Example 48, O^2-[1-(5-cyanopyridin-2-yl)piperidin-4-yl]1-(N-tert-butyl-N-ethylamino)diazen-1-ium-1,2-diolate]
ΔPP (mm Hg) 1-6 h: −17 mm Hg | ΔPP (mm Hg) 6-12 h: −16 mm Hg | ΔPP (mm Hg) 12-18 h: −15 mm Hg | ΔSBP (mm Hg) 1-6 h: −16 mm Hg | ΔSBP (mm Hg) 6-12 h: −12 mm Hg | ΔSBP (mm Hg) 12-18 h: −11 mm Hg
